Reference: US8263044B2, “Stilbene like compounds as novel HDAC inhibitors” (Orchid Research Laboratories Limited, priority 2005, dated 2012)
pIC50: −log10 of the molar value.

What was measured:
[1] = test system: HCT 116 cells; test: cells; conditions: Homo sapiens, HCT-116, 48 h; for GI50: read-out: HCT116 GI50; for CC50: read-out: HCT116 LC50
Method: (§1) Experimental drugs are screened for anti-cancer activity in three cell lines for their GI50, TGI and LC50 values (using five concentrations for each compound). The cell lines are maintained in DMEM containing 10% fetal bovine serum. 96 well micro titer plates are inoculated with cells in 100 μL for 24 h at 37° C., 5% CO2, 95% air and 100% relative humidity. 5000 HCT 116 cells/well, 5000 NCIH 460 cells/well and 5000 U251 cells/well are plated. A separate plate with these cell lines is also inoculated to determine cell viability before the addition of the compounds (T0) (See Table I).
(§2) Following 24-hour incubation, experimental drugs are added to the 96 well plates. Each plate contains one of the above cell lines and the following in triplicate: five different concentrations (0.01, 0.1, 1, 10 and 100 μM) of four different compounds, appropriate dilutions of a cytotoxic standard and control (untreated) wells. Compounds are dissolved in DMSO to make 20 mM stock solutions on the day of drug addition and frozen at −20° C. Serial dilutions of these 20 mM stock solutions are made in complete growth medium such that 100 μL of these drug solutions in medium, of final concentrations equaling 0.01, 0.1, 1, 10 and 100 μM can be added to the cells in triplicate. […] (See Table I).
(§3) For T0 measurement, 24 hours after seeding the cells, 10 μL of 3-(4,5-Dimethyl-2-thiazolyl)-2,5-diphenyl-2H-tetrazolium (MTT) solution per well is added and incubation carried out for 3 hours at 37° C., 5% CO2, 95% air and 100% relative humidity, protected from light. Cells incubated with compounds for 48 hours are treated similarly except with the addition of 20 μL MTT solution per well and a subsequent incubation under the same conditions. After 3 hours of MTT incubation, well contents are aspirated carefully followed by addition of 150 μL DMSO per well. Plates are agitated to ensure solution of the formazan crystals in DMSO and absorbance read at 570 nm. (See Table I).
(§4) Percent growth is calculated for each compound's concentration relative to the control and zero measurement wells (T0; viability right before compound addition).
(§5) If a test well's O.D. value is lower than the T0 measurement for that cell line, then, % Growth=(test−zero)/zero×100

[2] = test system: MDAMB231/U251; test: cells; conditions: 48 h, read-out: MDAMB231/U251 GI50
Method: as §1, §2, §3, §4, §5

[3] = test system: NCIH 460 cells; test: cells; conditions: Homo sapiens, NCI-H460, 48 h; for GI50: read-out: NCIH460 GI50; for CC50: read-out: NCIH460 LC50
Method: as §1, §2, §3, §4, §5

[4] = test system: NCIH460, HCT116, MDAMB231/U251; test: Anti-cancer screen, mean GI50 over the cell lines; format: cell-based; conditions: mean over the three cell lines; no unit in table
Method: as §1, §2, §3
Percent growth is calculated for each compound's concentration relative to the control and zero measurement wells (T0; viability right before compound addition). […]

[5] = test system: HDAC activity (Mouse Liver Extract); test: Histone Deacetylase (HDAC) Inhibition Assay using Boc-Lys (Ac)-AMC Substrate; format: biochemical; conditions: mouse liver enzyme; for HDAC Inhibition 1 μM: inhibitor at 1 μM; for HDAC Inhibition 1 μM / HDAC Inhibition 10 μM: in % (unit assumed); for HDAC Inhibition 10 μM: inhibitor at 10 μM
Method: Histone Deacetylase (HDAC) Inhibition Assay using Boc-Lys (Ac)-AMC Substrate: Inhibition of HDAC has been implicated to modulate transcription and to induce apoptosis or differentiation in cancer cells. The fluorometric assay provides a fast and fluorescence based method that eliminates radioactivity, extractions or chromatography, as used in traditional assays. The assay based on two steps. First, the HDAC fluorometric substrate, which comprises an acetylated lysine side chain, is incubated with a sample containing HDAC activity (Mouse Liver Extract). Deacetylation of the substrate sensitizes the substrate, in the second step; treatment with the Trypsin stop solution produces a fluorophore that can be easily analyzed using fluorescence plate reader.
Assay was done in 96 well black microplate and total volume of the assay is 100 ul. Mouse liver enzyme is diluted 1:6 with HDAC buffer. Enzyme cocktail made of 10 ul of diluted enzyme and 30 ul of HDAC buffer. 40 ul of enzyme cocktail dispensed into each well. 10 ul of different concentrations of inhibitor added in to each well, except enzyme control well. Preincubated the plate at 30° C. for 5 minutes. The HDAC reaction is started by adding 50 ul of HDAC substrate (Boc-Lys (Ac)-AMC Substrate) solution. Incubated the plate at 30° C. for 30 minutes. Adding 100 ul of Trypsin stop solution stops the reaction. The plate is incubated again at 30° C. for 20-30 minutes. The release of AMC is monitored by measuring the fluorescence at excitation wavelength of 365 or 360 nm and emission wavelength of 440 or 460 nm. Buffer and substrate alone kept for blank subtraction. (Dennis Wegener et al, Anal. Biochem, 321, 2003, 202-208).

[6] = test system: MDAMB231/U251; test: cells; conditions: 48 h, read-out: MDAMB231/U251 LC50

Compound	GI50 [1]	CC50 [1]	GI50 [2]	GI50 [3]	CC50 [3]	GI50 [4]	HDAC Inhibition 1 μM [5]	HDAC Inhibition 10 μM [5]	pIC50 [5]	CC50 [6]
COc1cc(/C=C(\C(=O)NCCCCCC(=O)NO)c2ccc(F)cc2)cc(OC)c1 [Example 1, (2Z)-3-(3,5-Dimethoxyphenyl)-2-(4-fluorophenyl)-N-[6-(hydroxyamino)-6-oxohexyl]acrylamide]	5 µM	70 µM	0.1 µM	> 100 µM	> 100 µM	2.6 µM	53.76	66.42	6.66	75 µM
CSc1ccc(/C=C(\C(=O)NCCCCCC(=O)Nc2nc3cc(C)ccc3s2)c2ccc(F)cc2)cc1 [Example 19, (2Z)-3-(4-Thiomethylphenyl)-2-(4-fluorophenyl)-N-[6-(5-methyl-2-benzothiazoleamine)-6-oxohexyl]acrylamide]	> 100 µM	> 100 µM	5.8 µM	8 µM	> 100 µM	6.9 µM	−22.2	10.2		> 100 µM
O=C(CCCCCNC(=O)/C(=C\c1ccccc1[N+](=O)[O-])c1ccc(Cl)cc1)NO [Example 30, (2Z)-3-(2-Nitrophenyl)-2-(4-chlorophenyl)-N-[6-(hydroxyamino)-6-oxohexyl]acrylamide]	6 µM	> 100 µM	3 µM	30 µM	> 100 µM	13 µM	52.95	84.69		> 100 µM
COc1ccc(/C(=C/c2c(F)ccc(F)c2F)C(=O)NCCCCCC(=O)NO)cc1 [Example 40, (2Z)-3-(2,3,6-Trifluorophenyl)-2-(4-methoxyphenyl)-N-[6-(hydroxyamino)-6-oxohexyl]acrylamide]	5.8 µM	> 100 µM	1 µM	3 µM	> 100 µM	3.27 µM	79.97	96.16		80 µM
O=C(CCCCCNC(=O)/C(=C\c1ccc(Cl)o1)c1ccc(F)cc1)NO [Example 37, (2Z)-3-(5-Chloro-2-furyl)-2-(4-fluorophenyl)-N-[6-(hydroxyamino)-6-oxohexyl]acrylamide]	6 µM	90 µM	5 µM	26 µM	90 µM	12.3 µM	56.87	83.89		80 µM
CSc1ccc(/C=C(\C(=O)NCCCCCC(=O)NO)c2ccc(F)cc2)cc1 [Example 16, (2Z)-3-(4-Thiomethylphenyl)-2-(4-fluorophenyl)-N-[6-(hydroxyamine)-6-oxohexyl]acrylamide]	1.9 µM	32 µM	0.15 µM	0.01 µM	24 µM	0.7 µM	68	83	7.21	90 µM
COc1ccc(/C(=C/c2cccc(Cl)c2)C(=O)NCCCCCC(=O)NO)cc1 [Example 28, (2Z)-3-(3-Chlorophenyl)-2-(4-methoxyphenyl)-N-[6-(hydroxyamino)-6-oxohexyl]acrylamide]	5 µM	45 µM	4 µM	9 µM	82 µM	6 µM	70.82	90.20	6.36	100 µM
CC(=O)N(O)C(=O)CCCCCNC(=O)/C(=C\c1ccc(Cl)o1)c1ccc(F)cc1 [Example 53, N-Acetyl-6-{[(2Z)-3-(5-chloro-2-furyl)-2-(4-fluorophenyl)-acrylamide]}-N-hydroxyhexanamide]	5 µM	65 µM	5 µM	13 µM	75 µM	7.7 µM	69.80	95.25	7.22	70 µM
O=C(CCCCCNC(=O)/C(=C\c1ccncc1)c1ccc(F)cc1)Nc1ccc(O)cc1[N+](=O)[O-] [Example 15]	> 100 µM	> 100 µM	> 100 µM	> 100 µM	> 100 µM	> 100 µM	1.7	4		> 100 µM
O=C(CCCCCNC(=O)/C(=C\c1ccc(F)cc1Cl)c1ccccc1)NO [Example 31, (2Z)-3-(2-Chloro-4-fluorophenyl)-2-(phenyl)-N-[6-(hydroxyamino)-6-oxohexyl]acrylamide]	5 µM	97 µM	6 µM	9.7 µM	> 100 µM	6.9 µM	72.20	91.49		> 100 µM
COc1cc(/C=C(\C(=O)NCCCCCC(=O)Nc2ccccc2N)c2ccc(O)cc2)cc(OC)c1 [Example 4]	9.4 µM	80 µM	55 µM	45 µM	> 100 µM	36 µM	16.9	24		> 100 µM
O=C(CCCCCNC(=O)/C(=C\c1ccc(C(F)(F)F)cc1)c1ccc(F)cc1)NO [Example 47, (2Z)-3-(4-Trifluoromethylphenyl)-2-(4-fluorophenyl)-N-[6-(hydroxyamino)-6-oxohexyl]acrylamide]	9 µM	95 µM	7.5 µM	13 µM	98 µM	9.8 µM	49.92	87.19		> 100 µM
CON(C)C(=O)CCCCCNC(=O)/C(=C\c1ccc(SC)cc1)c1ccc(F)cc1 [Example 18, (2Z)-3-(4-Thiomethylphenyl)-2-(4-fluorophenyl)-N-[6-(N,O dimethylamine)-6-oxohexyl]acrylamide]	55 µM	> 100 µM	0.8 µM	0.5 µM	> 100 µM	18.8 µM	2.26	0.89		> 100 µM
Cc1ncsc1/C=C(\C(=O)NCCCCCC(=O)NO)c1ccc(Br)cc1 [Example 23, (2Z)-3-(4-Methylthiazol-5-yl)-2-(4-bromophenyl)-N-[6-(hydroxyamino)-6-oxohexyl]acrylamide]	6 µM	> 100 µM	1 µM	0.8 µM	> 100 µM	2.6 µM	42.7	81.07	5.74	90 µM
